This is an account of results in the NIST ThermoML archive (doi:10.1016/j.tca.2015.09.023).

Numbers after ± are expanded uncertainties.

Series [1] can be described thus: Molar enthalpy of transition or fusion. As to conditions: Crystal; DSC.
The conditions of series [2]: Crystal; DTA.

Regarding `CN1C(=O)N[C@@H]2NC(=O)N[C@@H]21` (racemic), in series [1], the “Molar enthalpy of transition or fusion” value is 8.15 ± 0.191 kcal/mol. Also, the Normal melting temperature in series [2] came to 261.6 ± 0.4 °C.
The corresponding values for `CN1C(=O)N[C@H]2[C@@H]1N(C)C(=O)N2C` (racemic) are 4.8 ± 0.167 kcal/mol and 92.6 ± 0.4 °C.
Consider `CN1C(=O)N[C@H]2[C@@H]1NC(=O)N2C` (racemic), for which the “Molar enthalpy of transition or fusion” value in series [1] was 5.83 ± 0.167 kcal/mol. Also, the Normal melting temperature in series [2] is 277.1 ± 0.4 °C.
